# Test results as given in patent US20110152317A1, “P[…] OCCURRENCE OF OBESITY” (DUKE UNIVERSITY, priority 2008, published 2011).
# Legend:
# human on high-fat diet = test: Oral chloroquine in a human on a high-fat diet (Working Example I); type: in vivo; details: person, 400 mg orally daily, 12 weeks
# Procedure: A person with BMI of 20 eats a diet where 50% of calories come from fat, e.g. cheeseburgers or steak, onion rings or french fries, and ice cream or pecan pie for dessert at dinner, cold cut sandwich and fries or pizza for lunch, eggs, sausage, hash browns for breakfast. The subject also orally takes 400 mg chloroquine orally daily. The regimen is continued for 12 weeks.
# [1] = system: male C57BL/6 mice on a high-fat diet; test: Chloroquine injection in mice on high-fat diet (obesity, insulin resistance, skeletal muscle lipid profiling); type: in vivo, mouse; details: high-fat diet (60% of calories from fat), 60 mg/kg intraperitoneal daily for 12 weeks
# Text: Five adult (12 week old) male C57BL/6 mice (The Jackson Laboratory, Bar Harbor, ME) were subjected to 12 weeks of high-fat diet (HF) (60% of calories from fat) with a separate group of five mice on normal chow (NC) for the same duration as control. A significant difference in body weight between NC and HF mice was detected 4 weeks after implementation of the high-fat diet, and the body weight of the HF group continued to increase to about 55.4% above the value in age matched NC mice after 12 weeks of the high-fat diet. […] NC mice. The development of severe obesity in HF mice was accompanied by 89.0% increase (P<0.001) in blood glucose area under curve (AUC) during a glucose tolerance test. These findings indicate that high-fat diet in adult mice induced severe obesity and insulin resistance.
# Five of the same kind of non-obese mice as used in Background Example 1 on a high-fat diet (60% of calories from fat) were injected with chloroquine (60 mg/kg, intraperitoneal) daily for 12 weeks of high-fat diet feeding.
smiles,measurement,setting,value
CCN(CC)CCCC(C)Nc1ccnc2cc(Cl)ccc12 (centres unmarked) [chloroquine],BMI,"human on high-fat diet; baseline BMI 20, diet 50% of calories from fat",20
same,development of insulin resistance,human on high-fat diet; diet 50% of calories from fat,does not develop insulin resistance
same,high-fat diet induced changes in skeletal muscle (mass spectrometry-based profiling of lipid species),[1],blocked high-fat diet induced changes in skeletal muscle
same,occurrence of insulin resistance (glucose tolerance test),[1],blocked the occurrence of obesity and insulin resistance
same,occurrence of obesity,[1],blocked the occurrence of obesity
